Laboratory results as given in ChEMBL document CHEMBL3351706, “Identification of trichostatin derivatives from Streptomyces sp. CPCC 203909” (Bioorg Med Chem Lett, 2015).
pEC50, pIC50: −log10 of the molar value.

How the values were obtained:
[1] = Up-regulation of transcriptional activity of human CLA-1 promoter region -1055 to -62bp transfected in HepG2 cells by luciferase reporter gene assay; format: cell-based
U2OS = assay: Cytotoxicity against human U2OS cells after 96 hrs by MTT assay; format: functional, cell-based
HepG2 = assay: Cytotoxicity against human HepG2 cells after 96 hrs by MTT assay; format: functional, cell-based; settings: HepG2, 96 h
HeLa = assay: Cytotoxicity against human HeLa cells after 96 hrs by MTT assay; format: functional, cell-based
[2] = Cytotoxicity against human LO2 cells after 96 hrs by MTT assay; format: cell-based; settings: L02, 96 h
HEK293 = assay: Cytotoxicity against human HEK293 cells after 96 hrs by MTT assay; format: cell-based; settings: HEK293, 96 h

Row | pEC50 [1] | Structure (SMILES) | pIC50 (U2OS) | pIC50 (HepG2) | pIC50 (HeLa) | pIC50 [2] | pIC50 (HEK293)
1 | < 4.00 | CC(/C=C/C(=O)O)=C\[C@@H](C)C(=O)c1ccc(N(C)C)cc1 [TRICHOSTATIC ACID] | < 3.70 | < 3.70 | < 3.70 | 4.05 | 4.06
2 | 4.84 | CNc1ccc(C(=O)[C@](C)(O)/C=C(C)/C=C/C(=O)NO)cc1 | < 3.70 | < 3.70 | < 3.70 | 4.81 | 4.85
3 | < 4.00 | CC(=C/[C@@H](C)C(=O)c1ccc(N(C)C)cc1)/C=C/C(=O)O | < 3.70 | < 3.70 | < 3.70 | < 3.70 | < 4.00
4 | 5.62 | CC(/C=C/C(N)=O)=C\[C@@H](C)C(=O)c1ccc(N(C)C)cc1 | < 3.70 | < 3.70 | < 3.70 | 4.54 | 4.58
5 | < 4.00 | CC(/C=C/C(N)=O)=C\[C@@](C)(O)C(=O)c1ccc(N(C)C)cc1 | < 3.70 | < 3.70 | < 3.70 | < 3.70 | < 4.00
6 | 4.32 | CC(/C=C/C(=O)NO[C@H]1O[C@H](CO)[C@@H](O)[C@H](O)[C@H]1O)=C\[C@@H](C)C(=O)c1ccc(N(C)C)cc1 | < 3.70 | < 3.70 | < 3.70 | < 3.70 | < 4.00
7 | < 4.00 | CNc1ccc(C(=O)[C@](C)(O)/C=C(C)/C=C/C(N)=O)cc1 | < 3.70 | < 3.70 | < 3.70 | < 3.70 | < 4.00
8 | 6.42 | CC(/C=C/C(=O)NO)=C\[C@@H](C)C(=O)c1ccc(N(C)C)cc1 [TRICHOSTATIN] | 4.83 | 6.02 | 6.07 | 6.68 | 6.80
9 | 4.10 | CNC(=O)/C=C/C(C)=C/[C@@H](C)C(=O)c1ccc(N(C)C)cc1 | < 3.70 | < 3.70 | < 3.70 | 4.62 | 5.09
10 | 4.34 | CC(/C=C/C(=O)NO[C@@H]1O[C@H](CO)[C@@H](O)[C@H](O)[C@H]1O)=C\[C@@H](C)C(=O)c1ccc(N(C)C)cc1 | < 3.70 | < 3.70 | < 3.70 | < 3.70 | < 4.00
